Laboratory results as given in ChEMBL document CHEMBL4382242, “Novel racemosin B derivatives as new therapeutic agents for aggressive breast cancer” (Bioorg Med Chem, 2018).

Each molecule was assayed on MCF7 (assay: Growth inhibition of human MCF7 cells after 72 hrs by MTT assay). Details: MCF7, 72 h.
Assay type: functional, cell-based

SMILES	IC50
COc1ccc2[nH]c3c(C(=O)NCCN(C)C)cc4c5ccccc5[nH]c4c3c2c1	5.17 µM
O=C(NCc1cccnc1)c1cc2c3ccccc3[nH]c2c2c1[nH]c1ccccc12	9.8 µM
COc1cccc2c1C(=O)c1c(O)c3c(c(O)c1C2=O)C[C@@](O)(C(=O)CO)C[C@@H]3O[C@H]1C[C@H](N)[C@H](O)[C@H](C)O1 [DOXORUBICIN]	0.42 µM
CC(C)N(CCNC(=O)c1cc2c3ccccc3[nH]c2c2c1[nH]c1ccccc12)C(C)C	3.12 µM
O=C(NCCc1c[nH]cn1)c1cc2c3ccccc3[nH]c2c2c1[nH]c1ccccc12	4.86 µM

Other lines, results leading:

IC50	SMILES
5.83 µM	CCN1CCCC1CNC(=O)c1cc2c3ccccc3[nH]c2c2c1[nH]c1ccccc12 (stereo unspecified)
1.3 µM	O=C(NCCN1CCCC1)c1cc2c3ccccc3[nH]c2c2c1[nH]c1ccc(Br)cc12
7.76 µM	O=C(NCCN1CCOCC1)c1cc2c3ccccc3[nH]c2c2c1[nH]c1ccccc12

Each molecule was assayed on MDA-MB-231 (assay: Growth inhibition of human MDA-MB-231 cells after 72 hrs by MTT assay). Details: MDA-MB-231, 72 h.
Assay type: functional, cell-based

SMILES	IC50
COc1ccc2[nH]c3c(C(=O)NCCN(C)C)cc4c5ccccc5[nH]c4c3c2c1	2.74 µM
O=C(NCc1cccnc1)c1cc2c3ccccc3[nH]c2c2c1[nH]c1ccccc12	6.01 µM
COc1cccc2c1C(=O)c1c(O)c3c(c(O)c1C2=O)C[C@@](O)(C(=O)CO)C[C@@H]3O[C@H]1C[C@H](N)[C@H](O)[C@H](C)O1 [DOXORUBICIN]	0.25 µM
CC(C)N(CCNC(=O)c1cc2c3ccccc3[nH]c2c2c1[nH]c1ccccc12)C(C)C	1.72 µM
O=C(NCCc1c[nH]cn1)c1cc2c3ccccc3[nH]c2c2c1[nH]c1ccccc12	4.16 µM

The remaining lines, values ahead:

IC50	SMILES
3.53 µM	CCN1CCCC1CNC(=O)c1cc2c3ccccc3[nH]c2c2c1[nH]c1ccccc12 (stereo unspecified)
1.82 µM	O=C(NCCN1CCCC1)c1cc2c3ccccc3[nH]c2c2c1[nH]c1ccc(Br)cc12
4.4 µM	O=C(NCCN1CCOCC1)c1cc2c3ccccc3[nH]c2c2c1[nH]c1ccccc12
